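Tested at 5 concentrations; 48 h exposure; 96-well plates; endpoints linearly interpolated, else capped at highest concentration. Definition used: TGI = concentration required for complete inhibition of growth.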
Tests used:
Assay in all cases: DTP human tumour cell line panel, 48 h
SF-539 CNS = test system: SF-539 CNS
NCI/ADR-RES ovarian = test system: NCI/ADR-RES ovarian
U251 CNS = test system: U251 CNS
SN12C renal = test system: SN12C renal
A549 NSCLC = test system: A549 NSCLC
HOP-62 NSCLC = test system: HOP-62 NSCLC
RPMI-8226 leukemia = test system: RPMI-8226 leukemia
SK-MEL-28 melanoma = test system: SK-MEL-28 melanoma
OVCAR-3 ovarian = test system: OVCAR-3 ovarian
SK-MEL-5 melanoma = test system: SK-MEL-5 melanoma
COLO 205 colon = test system: COLO 205 colon
UACC-257 melanoma = test system: UACC-257 melanoma
HS 578T breast = test system: HS 578T breast
EKVX NSCLC = test system: EKVX NSCLC
A498 renal = test system: A498 renal
SW-620 colon = test system: SW-620 colon
ACHN renal = test system: ACHN renal
KM12 colon = test system: KM12 colon
MDA-MB-435 = test system: MDA-MB-435
RXF 393 renal = test system: RXF 393 renal
HCC-2998 colon = test system: HCC-2998 colon
HOP-92 NSCLC = test system: HOP-92 NSCLC
UACC-62 melanoma = test system: UACC-62 melanoma
HCT-116 colon = test system: HCT-116 colon
OVCAR-4 ovarian = test system: OVCAR-4 ovarian
786-0 renal = test system: 786-0 renal
MDA-MB-231 breast = test system: MDA-MB-231 breast
MDA-N = test system: MDA-N
OVCAR-5 ovarian = test system: OVCAR-5 ovarian
SNB-19 CNS = test system: SNB-19 CNS
DU-145 prostate = test system: DU-145 prostate
SF-295 CNS = test system: SF-295 CNS
UO-31 renal = test system: UO-31 renal
HCT-15 colon = test system: HCT-15 colon
SF-268 CNS = test system: SF-268 CNS
CCRF-CEM leukemia = test system: CCRF-CEM leukemia
SK-OV-3 ovarian = test system: SK-OV-3 ovarian
TK-10 renal = test system: TK-10 renal
PC-3 prostate = test system: PC-3 prostate
LOX IMVI melanoma = test system: LOX IMVI melanoma
MCF7 breast = test system: MCF7 breast
K-562 leukemia = test system: K-562 leukemia
NCI-H226 lung = test system: NCI-H226 lung
SNB-75 CNS = test system: SNB-75 CNS
CAKI-1 renal = test system: CAKI-1 renal
M14 melanoma = test system: M14 melanoma
SK-MEL-2 melanoma = test system: SK-MEL-2 melanoma
T-47D breast = test system: T-47D breast

Measured: TGI

Nc1nc2c(ncn2CC2CCC(CO)C2)c(=O)[nH]1 (stereo not drawn)
> 100 µM: all assays above

Source: PubChem BioAssay (NCI)
